Results from patent US20240217947A1, “Morpholinylquinazoline Compound, Pharmaceutical compositions thereof and Use Thereof” (SHANGHAI YINGLI PHARMACEUTICAL CO., LTD, priority 2022, published 2024).

Legend:
Assay type in all cases: biochemical
HDAC2 = HDAC2 (Homo sapiens, UniProt Q92769); experiment: HDAC2 enzyme activity inhibition IC50 evaluation experiment; conditions: HDAC2 4 nM, acetylated peptide 10 μM, trypsin, fluorescence
Method: (§1) Effect Example 2 HDAC1, HDAC2, HDAC3, HDAC6 enzyme activity inhibition IC50 evaluation experiment
(§2) Buffer solution (50 mM Tris 7.5, 0.01% Tween-20, 50 mM NaCl) was prepared according to the kit instructions, and the enzyme solution and substrate solution (acetylated peptide with the addition of trypsin) were prepared using the buffer solution. The test compound samples were dissolved with DMSO and added to the screening system at a certain starting concentration such as 10 μM, 3-fold dilution, while setting up a DMSO control and no-enzyme control. The enzyme reaction system includes: buffer, enzyme [final concentration: HDAC1=10 nM, HDAC2=4 nM, HDAC3=7 nM, HDAC6=5 nM], substrate (acetylated peptide) [final concentration: Peptide(HDAC1)=8 μM, Peptide(HDAC2)=10 μM, Peptide(HDAC3)=5 μM, Peptide(HDAC6)=11 μM], trypsin [final concentration: Trypsin(HDAC1,2,3)=0.05 μM, Trypsin(HDAC6)=0.1 μM], etc. The enzymes and compounds were reacted at room temperature for 15 min. After adding the substrate and Trypsin, centrifugation was performed for 1 min, and the fluorescence signal data (excitation wavelength 355 nM/emission wavelength 460 nm) was read continuously for 60 min using Envision, and the linear reaction segment was selected to obtain the slope and thus calculate the inhibition rate at that concentration. The IC50 value was obtained by fitting the curve using the formula Y=Bottom+(Top-Bottom)/(1+(IC50/X)^HillSlope).

HDAC3 = HDAC3 (Homo sapiens, UniProt O15379); experiment: HDAC3 enzyme activity inhibition IC50 evaluation experiment; conditions: HDAC3 7 nM, acetylated peptide 5 μM, trypsin, fluorescence
Method: as §1, §2

HDAC1 = HDAC1 (Homo sapiens, UniProt Q13547); experiment: HDAC1 enzyme activity inhibition IC50 evaluation experiment; conditions: HDAC1 10 nM, acetylated peptide 8 μM, trypsin, fluorescence
Method: as §1, §2

PI3Kγ = PI3Kγ (Homo sapiens, UniProt P48736); experiment: PI3Kγ enzyme activity inhibition IC50 evaluation assay (ADP-Glo Kinase Assay); conditions: ATP 25 μM, PIP2 50 μg/mL, 1 hour room temperature, read-out: PI3K-γ IC50
Method: (§3) Effec Example 1 IC50 evaluation assay for PI3Kα, PI3Kδ, PI3Kβ and PI3Kγ enzyme activity inhibition
(§4) The experiment was performed using the ADP-Glo Kinase Assay kit, following the instructions. The following buffer solutions were prepared: 50 mM HEPES, pH 7.5, 3 mM MgCl2, 1 mM EGTA, 100 mM NaCl, 0.03% CHAPS, 2 mM DTT. The test compound samples were dissolved in DMSO and added to the screening system at a certain starting concentration such as 10 μM, 3-fold dilution, while setting up both DMSO control and no kinase control. The optimal concentrations of PI3Kα, PI3Kδ, PI3Kβ and PI3Kγ enzymes, substrate (PIP2) and ATP were prepared in buffer. The enzyme reaction system included: buffer, ATP 25 μM, kinase substrate (PIP2, 50 μg/mL), kinases [PI3Kα (0.15 μg/mL), PI3Kδ (1.2 μg/mL), PI3Kβ (0.3 μg/mL) and PI3Kγ (2.5 μg/mL)], etc. The reaction system was reacted at room temperature for 1 hour. The reaction was terminated by adding a termination reagent (ADP-Glo reagent, 5 μL), and the ADP content in the system was detected using a detection reagent (Kinase Detection Reagent, 10 μL). Signal data were collected using the Envision instrument. Calculate the percentage of (%) inhibition according to the following formula: % inhibition=(DMSO control signal value−sample signal value)/(DMSO control signal value−no-kinase control signal value). The IC50 value was obtained by fitting the curve using the formula Y=Bottom+(Top-Bottom)/(1+(IC50/X)^HillSlope).

PI3Kβ = PI3Kβ (Homo sapiens, UniProt P42338); experiment: PI3Kβ enzyme activity inhibition IC50 evaluation assay (ADP-Glo Kinase Assay); conditions: ATP 25 μM, PIP2 50 μg/mL, 1 hour room temperature, read-out: PI3K-β IC50
Method: as §3, §4

HDAC1, sequence (Q13547 whole entry, species assumed): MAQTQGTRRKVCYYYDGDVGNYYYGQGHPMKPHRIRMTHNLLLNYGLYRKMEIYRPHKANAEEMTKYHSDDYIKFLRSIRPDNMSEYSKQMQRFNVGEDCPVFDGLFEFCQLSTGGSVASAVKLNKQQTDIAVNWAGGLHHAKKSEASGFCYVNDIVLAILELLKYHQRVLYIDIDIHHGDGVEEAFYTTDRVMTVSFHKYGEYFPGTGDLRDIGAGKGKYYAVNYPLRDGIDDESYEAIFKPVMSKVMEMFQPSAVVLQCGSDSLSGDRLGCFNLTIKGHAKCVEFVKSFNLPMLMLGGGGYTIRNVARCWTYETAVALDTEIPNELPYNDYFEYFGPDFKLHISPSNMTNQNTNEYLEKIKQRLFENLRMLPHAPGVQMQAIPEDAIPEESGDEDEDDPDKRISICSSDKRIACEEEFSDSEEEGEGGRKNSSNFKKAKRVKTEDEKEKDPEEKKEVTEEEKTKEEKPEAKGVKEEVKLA
HDAC3, sequence (O15379 whole entry, species assumed): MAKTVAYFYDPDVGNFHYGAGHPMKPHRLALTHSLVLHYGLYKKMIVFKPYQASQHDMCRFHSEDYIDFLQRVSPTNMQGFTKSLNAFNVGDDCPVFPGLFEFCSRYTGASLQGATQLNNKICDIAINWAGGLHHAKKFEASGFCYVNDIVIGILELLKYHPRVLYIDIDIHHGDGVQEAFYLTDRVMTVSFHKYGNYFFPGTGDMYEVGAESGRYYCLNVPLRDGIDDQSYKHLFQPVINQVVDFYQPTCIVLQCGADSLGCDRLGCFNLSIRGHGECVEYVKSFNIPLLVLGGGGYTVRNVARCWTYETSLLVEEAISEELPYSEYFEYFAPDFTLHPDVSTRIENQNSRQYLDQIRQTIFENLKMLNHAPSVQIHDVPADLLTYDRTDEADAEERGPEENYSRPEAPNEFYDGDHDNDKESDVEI
HDAC3, sequence (Q9Y618 395-489 partner limits assumed, species assumed): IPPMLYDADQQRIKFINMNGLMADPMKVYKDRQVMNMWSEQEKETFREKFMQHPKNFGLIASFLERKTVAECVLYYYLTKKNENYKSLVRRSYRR
HDAC2, sequence (Q92769 whole entry, species assumed): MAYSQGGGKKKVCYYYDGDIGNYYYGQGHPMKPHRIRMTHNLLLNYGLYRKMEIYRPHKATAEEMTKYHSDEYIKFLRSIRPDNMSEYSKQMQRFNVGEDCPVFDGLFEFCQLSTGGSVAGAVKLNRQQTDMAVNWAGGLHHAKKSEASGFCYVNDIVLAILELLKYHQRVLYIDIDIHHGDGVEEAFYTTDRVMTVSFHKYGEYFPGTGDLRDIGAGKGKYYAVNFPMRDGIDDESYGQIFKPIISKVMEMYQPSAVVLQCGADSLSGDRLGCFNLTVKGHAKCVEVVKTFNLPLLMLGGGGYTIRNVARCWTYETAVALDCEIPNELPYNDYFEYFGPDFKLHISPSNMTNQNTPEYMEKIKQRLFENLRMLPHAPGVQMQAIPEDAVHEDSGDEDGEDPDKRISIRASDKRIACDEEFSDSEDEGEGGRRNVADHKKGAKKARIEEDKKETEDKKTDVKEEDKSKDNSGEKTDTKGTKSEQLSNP
PI3Kγ, sequence (P48736 whole entry, species assumed): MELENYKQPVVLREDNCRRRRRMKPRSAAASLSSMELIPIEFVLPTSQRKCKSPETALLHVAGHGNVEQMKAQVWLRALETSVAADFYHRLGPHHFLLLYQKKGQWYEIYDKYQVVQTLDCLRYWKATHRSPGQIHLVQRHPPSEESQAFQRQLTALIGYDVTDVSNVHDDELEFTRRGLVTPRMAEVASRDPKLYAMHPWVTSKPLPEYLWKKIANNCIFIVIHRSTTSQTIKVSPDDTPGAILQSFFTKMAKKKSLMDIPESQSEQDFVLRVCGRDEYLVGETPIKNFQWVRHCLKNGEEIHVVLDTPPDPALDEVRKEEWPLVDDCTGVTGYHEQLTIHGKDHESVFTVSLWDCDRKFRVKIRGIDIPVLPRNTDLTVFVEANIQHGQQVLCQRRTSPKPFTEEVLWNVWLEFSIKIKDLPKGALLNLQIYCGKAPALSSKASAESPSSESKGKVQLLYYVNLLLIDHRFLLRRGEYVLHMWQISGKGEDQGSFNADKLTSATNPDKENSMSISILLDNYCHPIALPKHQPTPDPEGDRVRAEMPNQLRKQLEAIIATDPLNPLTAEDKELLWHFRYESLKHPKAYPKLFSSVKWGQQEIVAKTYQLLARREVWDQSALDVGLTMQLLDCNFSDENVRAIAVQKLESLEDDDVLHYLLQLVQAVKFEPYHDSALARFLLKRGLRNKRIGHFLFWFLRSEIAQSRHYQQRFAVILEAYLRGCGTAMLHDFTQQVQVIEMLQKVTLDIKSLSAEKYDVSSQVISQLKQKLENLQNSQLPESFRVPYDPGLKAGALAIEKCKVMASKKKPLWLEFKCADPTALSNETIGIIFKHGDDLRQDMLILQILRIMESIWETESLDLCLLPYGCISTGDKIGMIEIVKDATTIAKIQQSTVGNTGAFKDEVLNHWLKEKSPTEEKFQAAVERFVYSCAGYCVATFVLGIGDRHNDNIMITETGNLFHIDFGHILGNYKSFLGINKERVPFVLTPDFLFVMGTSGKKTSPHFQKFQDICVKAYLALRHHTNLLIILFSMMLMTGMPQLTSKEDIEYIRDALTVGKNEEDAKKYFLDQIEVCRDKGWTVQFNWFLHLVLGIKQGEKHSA
PI3Kβ, sequence (P42338 whole entry, species assumed): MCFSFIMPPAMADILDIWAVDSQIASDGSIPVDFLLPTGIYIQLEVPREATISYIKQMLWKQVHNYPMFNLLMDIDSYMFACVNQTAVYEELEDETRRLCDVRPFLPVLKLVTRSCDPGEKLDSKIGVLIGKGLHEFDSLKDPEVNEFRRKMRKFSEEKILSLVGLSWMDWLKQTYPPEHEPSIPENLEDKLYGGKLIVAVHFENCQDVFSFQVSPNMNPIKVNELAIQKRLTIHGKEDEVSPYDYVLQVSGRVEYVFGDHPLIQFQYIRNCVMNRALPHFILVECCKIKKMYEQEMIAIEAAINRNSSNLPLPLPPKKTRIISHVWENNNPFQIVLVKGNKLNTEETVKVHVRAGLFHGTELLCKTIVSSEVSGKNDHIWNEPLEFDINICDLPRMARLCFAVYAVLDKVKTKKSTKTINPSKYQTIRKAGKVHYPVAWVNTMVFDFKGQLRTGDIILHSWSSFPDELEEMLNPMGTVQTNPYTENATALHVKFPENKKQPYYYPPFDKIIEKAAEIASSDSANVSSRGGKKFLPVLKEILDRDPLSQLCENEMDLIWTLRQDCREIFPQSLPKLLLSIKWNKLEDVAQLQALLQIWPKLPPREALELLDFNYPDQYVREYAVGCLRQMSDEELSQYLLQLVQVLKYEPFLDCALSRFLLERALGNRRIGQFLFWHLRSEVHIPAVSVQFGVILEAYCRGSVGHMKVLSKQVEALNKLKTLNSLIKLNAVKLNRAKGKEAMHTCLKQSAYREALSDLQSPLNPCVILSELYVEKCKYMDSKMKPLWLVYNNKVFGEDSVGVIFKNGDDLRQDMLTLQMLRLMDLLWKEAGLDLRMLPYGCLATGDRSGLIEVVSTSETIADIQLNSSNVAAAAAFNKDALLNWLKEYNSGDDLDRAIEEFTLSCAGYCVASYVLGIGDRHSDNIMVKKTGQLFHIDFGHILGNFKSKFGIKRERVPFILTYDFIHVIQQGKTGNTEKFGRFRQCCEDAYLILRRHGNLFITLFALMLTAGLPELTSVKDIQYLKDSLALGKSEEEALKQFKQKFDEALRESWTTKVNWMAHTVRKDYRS
PI3Kβ, sequence (P27986 whole entry partner, species assumed): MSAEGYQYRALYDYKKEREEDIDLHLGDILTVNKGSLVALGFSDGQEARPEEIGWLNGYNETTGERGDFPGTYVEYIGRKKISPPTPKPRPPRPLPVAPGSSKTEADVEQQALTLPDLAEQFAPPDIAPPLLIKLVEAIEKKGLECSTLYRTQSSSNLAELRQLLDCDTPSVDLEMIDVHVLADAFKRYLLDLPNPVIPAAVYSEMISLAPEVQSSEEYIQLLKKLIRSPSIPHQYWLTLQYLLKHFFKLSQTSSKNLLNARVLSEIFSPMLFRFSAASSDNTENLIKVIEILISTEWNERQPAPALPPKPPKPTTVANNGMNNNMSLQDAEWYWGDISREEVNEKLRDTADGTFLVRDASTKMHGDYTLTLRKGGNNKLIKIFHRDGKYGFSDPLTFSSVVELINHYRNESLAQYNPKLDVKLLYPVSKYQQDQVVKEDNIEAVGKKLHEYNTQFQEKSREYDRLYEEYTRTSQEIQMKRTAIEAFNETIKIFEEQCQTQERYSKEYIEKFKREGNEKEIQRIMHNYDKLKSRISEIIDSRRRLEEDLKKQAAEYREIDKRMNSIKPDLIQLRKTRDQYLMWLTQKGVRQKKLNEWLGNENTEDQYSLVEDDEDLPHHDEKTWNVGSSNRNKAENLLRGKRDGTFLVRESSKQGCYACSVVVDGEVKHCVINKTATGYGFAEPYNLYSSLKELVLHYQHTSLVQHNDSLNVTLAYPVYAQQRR

IC50 (HDAC2) [nM] | IC50 (HDAC3) [nM] | IC50 (HDAC1) [nM] | IC50 (PI3Kγ) [nM] | IC50 (PI3Kβ) [nM] | SMILES
≤ 10 | 10 to 100 | ≤ 10 | – | – | COc1ncc(-c2nc(N3CCOCC3)nc3c(OCCCCCCC(=O)NO)cc(F)cc23)cc1NS(C)(=O)=O [Compound 9]
100 to 1000 | 100 to 1000 | 100 to 1000 | 1000 to 10000 | 1000 to 10000 | COc1ncc(-c2nc(N3CCOCC3)nc3c(OC4CCN(c5ncc(C(=O)NO)cc5F)CC4)cc(F)cc23)cc1NS(C)(=O)=O [Compound 30]
100 to 1000 | 100 to 1000 | 10 to 100 | – | – | COc1ncc(-c2nc(N3CCOCC3)nc3c(OC4CCN(c5ccc(C(=O)NO)cn5)CC4)cc(F)cc23)cc1NS(C)(=O)=O [Compound 40]
10 to 100 | 10 to 100 | ≤ 10 | – | – | COc1ncc(-c2nc(N3CCOCC3)nc3c(OC4CCN(c5ncc(C(=O)NO)cn5)CC4)cc(F)cc23)cc1NS(C)(=O)=O [Compound 39]
10 to 100 | 10 to 100 | 10 to 100 | 1000 to 10000 | 100 to 1000 | COc1ncc(-c2nc(N3CCOCC3)nc3c(CN4CCN(c5ncc(C(=O)NO)cn5)CC4)cc(F)cc23)cc1NS(C)(=O)=O [Compound 7]
